The first assay has as its system HIV-1 (H9/IIIB strain). Description: Multiple round HIV-1 infection assay in MT4-GFP cells (wild type cell assay, Viking). Type of assay: cell-based. The settings on record: 0% NHS condition; MT4-GFP cells infected with HIV-1 H9/IIIB; inhibition of reproductive ratio R0, ~48 h and ~72 h post-infection; read-out: WILD TYPE CELL ASSAY Viking IP (0% NHS). On the procedure:
Assessing Antiviral Potency in a Multiple Round HIV-1 Infection Assay
The antiviral activity of the Examples herein was assessed in an assay that measures the rate of replication of HIV in cell culture, and performed according to the following procedure. HIV-1 replication was monitored using MT4-gag-GFP clone D3 (hereafter designated MT4-GFP), which are MT-4 cells modified to harbor a GFP reporter gene, the expression of which is dependent on the HIV-1 expressed proteins tat and rev. Productive infection of an MT4-GFP cell with HIV-1 results in GFP expression approximately 24 h post-infection. MT4-GFP cells were maintained at 37° C./5% CO2/90% relative humidity in RPMI 1640 supplemented with 10% fetal bovine serum, 100 U/ml penicillin/streptomycin, and 400 μg/ml G418 to maintain the reporter gene. For infections, MT4-GFP cells were placed in the same medium lacking G418 and infected overnight with HIV-1 (H9/IIIB strain) virus at an approximate multiplicity of infection of 0.01 in the same incubation conditions. Cells were then washed and re-suspended in either RPMI 1640 at 2×10^5 cells/mL (0% NHS condition) or 100% normal human serum (NHS) at 2×10^5 cells/mL (100% NHS condition). Compound plates were prepared by dispensing compounds dissolved in DMSO into wells of 384 well poly-D-lysine-coated plates (0.2 μl/well) using an ECHO acoustic dispenser. Each compound was tested in a 10-point serial 3-fold dilution (typical final concentrations: 1050 nM-0.05 nM for 0% NHS condition or […]-2.13 nM for 100% NHS condition). Controls included no inhibitor (DMSO only) and a combination of three antiviral agents (efavirenz, indinavir, an in-house integrase strand transfer inhibitor at final concentrations of […] each). Cells were added ([…]) to compound plates and the infected cells were maintained at 37° C./5% CO2/90% relative humidity.
Infected cells were quantified at two time points, ˜48 h and ˜72 h post-infection, by counting the number of green cells in each well using an Acumen eX3 scanner. The increase in the number of green cells over ˜24 h period gives the reproductive ratio, RO, which is typically 5-15 and has been shown experimentally to be in logarithmic phase (data not shown). Inhibition of R0 is calculated for each well, and IC50s determined by non-linear 4-parameter curve fitting.
Take `CCC1N(C)C(=O)c2c(O)c(=O)c(C(=O)NCc3ccc(F)cc3F)c3n2N1CC3O` (single isomer, unassigned) [Compound 29]: the IC50 was 0.76 nM.

Turning to `CCN1C(=O)c2c(O)c(=O)c(C(=O)NCc3ccc(C(F)(F)F)cc3)c3n2N(CC3O)C1C` (stereo not shown) [Compound 79], the IC50 is 103 nM.

Consider `CC1N(C)C(=O)c2c(O)c(=O)c(C(=O)NCc3c(F)cc(F)cc3F)c3n2N1CC3O` (stereo not shown) [Compound 20], for which the IC50 was determined as 1.7 nM.

On to `CCN1CN2CC(O)c3c(C(=O)NCc4ccc(F)cc4)c(=O)c(O)c(n32)C1=O` (stereo not shown) [Compound 61], for which the IC50 was determined as 1.9 nM.

Consider `CCN1C(=O)c2c(O)c(=O)c(C(=O)NCc3c(F)ccc(F)c3F)c3n2N(CC3O)C1C` (stereo not shown) [Compound 84], for which the IC50 is 2.1 nM.

Take `CCN1CN2CC(O)c3c(C(=O)NCc4c(F)cc(F)cc4F)c(=O)c(O)c(n32)C1=O` (stereo not shown) [Compound 56]: the IC50 stood at 2.9 nM.

For the compound `COCCN1CN2CC(O)c3c(C(=O)NCc4ccc(F)c(Cl)c4F)c(=O)c(O)c(n32)C1=O` (stereo not shown) [Compound 40], the IC50 was 2.1 nM.

Consider `CN1CN2CC(O)c3c(C(=O)NCc4c(F)ccc(Cl)c4F)c(=O)c(O)c(n32)C1=O` (stereo not shown) [Compound 8], for which the IC50 is 1.9 nM.

For `CN1C(=O)c2c(O)c(=O)c(C(=O)NCc3ccc(F)cc3F)c3n2N(CC3O)C12CCOC2` (single isomer, unassigned) [Compound 112], the IC50 stood at 1.7 nM.

`CCN1C(=O)c2c(O)c(=O)c(C(=O)NCc3c(F)ccc(Cl)c3F)c3n2N(CC3O)C1C` (single isomer, unassigned) [Compound 70]: the IC50 was 1.8 nM.

As to `CCN1CN2CC(O)c3c(C(=O)NCc4ccccc4F)c(=O)c(O)c(n32)C1=O` (stereo not shown) [Compound 64], the IC50 amounted to 5.9 nM.

Consider `CCC1N(C)C(=O)c2c(O)c(=O)c(C(=O)NCc3c(F)cc(F)cc3F)c3n2N1CC3O` (single isomer, unassigned) [Compound 34], for which the IC50 is 2.8 nM.

Regarding `CCN1CN2CC(O)c3c(C(=O)NCc4c(F)ccc(Cl)c4F)c(=O)c(O)c(n32)C1=O` (stereo not shown) [Compound 54], the IC50 came to 4.7 nM.

Regarding `CCC1N(C)C(=O)c2c(O)c(=O)c(C(=O)NCc3ccc(F)cc3F)c3n2N1CC3O` (single isomer, unassigned) [Compound 30], the IC50 was determined as 1.6 nM.

Consider `CCN1C(=O)c2c(O)c(=O)c(C(=O)NCc3c(F)ccc(Cl)c3F)c3n2N(CC3O)C1C` (stereo not shown) [Compound 72], for which the IC50 stood at 2.3 nM.

Consider `CCN1C(=O)c2c(O)c(=O)c(C(=O)NCc3c(F)ccc(F)c3F)c3n2N(CC3O)C1C` (single isomer, unassigned) [Compound 82], for which the IC50 came to 2.2 nM.

On to `CCN1C(=O)c2c(O)c(=O)c(C(=O)NCc3ccc(F)cc3F)c3n2N(CC3O)C1C` (single isomer, unassigned) [Compound 90], for which the IC50 turned out to be 1.9 nM.

As for `CCN1CN2CC(O)c3c(C(=O)NCc4ccc(F)cc4)c(=O)c(O)c(n32)C1=O` (stereo not shown) [Compound 62], the IC50 turned out to be 5.2 nM.

With `CCN1CN2CC(O)c3c(C(=O)NCc4ccc(F)cc4F)c(=O)c(O)c(n32)C1=O` (stereo not shown) [Compound 58], the IC50 came out at 4 nM.

Consider `CC1N(C)C(=O)c2c(O)c(=O)c(C(=O)NCc3ccc(F)cc3F)c3n2N1CC3O` (stereo not shown) [Compound 16], for which the IC50 came to 1.9 nM.

`CCN1CN2CC(O)c3c(C(=O)NCc4ccc(F)c(Cl)c4F)c(=O)c(O)c(n32)C1=O` (stereo not shown) [Compound 50]: the IC50 is 4.2 nM.

As for `CCN1C(=O)c2c(O)c(=O)c(C(=O)NCc3ccc(C(F)F)cc3)c3n2N(CC3O)C1C` (single isomer, unassigned) [Compound 74], the IC50 was 66 nM.

In the case of `CCN1C(=O)c2c(O)c(=O)c(C(=O)NCc3ccc(C(F)(F)F)cc3)c3n2N(CC3O)C1C` (single isomer, unassigned) [Compound 78], the IC50 amounted to 87 nM.

As to `CCC1N(C)C(=O)c2c(O)c(=O)c(C(=O)NCc3ccc(F)cc3F)c3n2N1CC3O` (stereo not shown) [Compound 32], the IC50 came to 2.5 nM.

With `CC1N(C)C(=O)c2c(O)c(=O)c(C(=O)NCc3c(F)ccc(F)c3F)c3n2N1CC3O` (single isomer, unassigned) [Compound 22], the IC50 is 2.3 nM.

In the case of `CCN1CN2CC(O)c3c(C(=O)NCc4ccccc4F)c(=O)c(O)c(n32)C1=O` (stereo not shown) [Compound 63], the IC50 came to 1.6 nM.

For `CCN1C(=O)c2c(O)c(=O)c(C(=O)NCc3ccc(F)cc3F)c3n2N(CC3O)C1C` (stereo not shown) [Compound 92], the IC50 amounted to 1.7 nM.

For the compound `CCN1C(=O)c2c(O)c(=O)c(C(=O)NCc3ccc(C(F)F)cc3)c3n2N(CC3O)C1C` (stereo not shown) [Compound 75], the IC50 is 35 nM.

Consider `CN1C(=O)c2c(O)c(=O)c(C(=O)NCc3c(F)ccc(Cl)c3F)c3n2N(CC3O)C12CCOC2` (single isomer, unassigned) [Compound 116], for which the IC50 was found to be 3.1 nM.

As for `CN1CN2CC(O)c3c(C(=O)NCc4ccc(F)cc4F)c(=O)c(O)c(n32)C1=O` (stereo not shown) [Compound 4], the IC50 turned out to be 3.5 nM.

Consider `CCN1CN2CC(O)c3c(C(=O)NCc4cccc(Cl)c4F)c(=O)c(O)c(n32)C1=O` (stereo not shown) [Compound 52], for which the IC50 turned out to be 8.1 nM.

On to `CN1C(=O)c2c(O)c(=O)c(C(=O)NCc3c(F)ccc(Cl)c3F)c3n2N(CC3O)C12CCOC2` (stereo not shown) [Compound 118], for which the IC50 is 1.6 nM.

`CCC1N(C)C(=O)c2c(O)c(=O)c(C(=O)NCc3c(F)cc(F)cc3F)c3n2N1CC3O` (stereo not shown) [Compound 36]: the IC50 is 1.5 nM.

For `CC1N(C)C(=O)c2c(O)c(=O)c(C(=O)NCc3c(F)ccc(F)c3F)c3n2N1CC3O` (stereo not shown) [Compound 24], the IC50 is 1.5 nM.

Consider `CN1CN2CC(O)c3c(C(=O)NCc4ccc(F)cc4)c(=O)c(O)c(n32)C1=O` (stereo not shown) [Compound 6], for which the IC50 was determined as 3 nM.

Still in this assay, the particulars now being: Human immunodeficiency virus 1, IIIB, 0% NHS condition; MT4-GFP cells infected with HIV-1 H9/IIIB; inhibition of reproductive ratio R0, ~48 h and ~72 h post-infection; read-out: WILD TYPE CELL ASSAY Viking IP (0% NHS).
With `CCC1N(C)C(=O)c2c(O)c(=O)c(C(=O)NCc3c(F)ccc(Cl)c3F)c3n2N1CC3O` (single isomer, unassigned) [Compound 25], the IC50 amounted to 2 nM.

Turning to `CN1C(=O)c2c(O)c(=O)c(C(=O)NCc3ccc(F)cc3F)c3n2N(CC3O)C12CCOC2` (stereo not shown) [Compound 113], the IC50 was found to be 1.5 nM.

In the case of `CCN1CN2CC(O)c3c(C(=O)NCc4c(F)ccc(F)c4F)c(=O)c(O)c(n32)C1=O` (stereo not shown) [Compound 47], the IC50 worked out at 2.8 nM.

`CCN1C(=O)c2c(O)c(=O)c(C(=O)NCc3c(F)ccc(Cl)c3F)c3n2N(CC3O)C1C` (stereo not shown) [Compound 71]: the IC50 was 3.7 nM.

`CC1N(C)C(=O)c2c(O)c(=O)c(C(=O)NCc3c(F)ccc(F)c3F)c3n2N1CC3O` (single isomer, unassigned) [Compound 21]: the IC50 came to 1.4 nM.

Consider `CCN1C(=O)c2c(O)c(=O)c(C(=O)NCc3c(F)ccc(Cl)c3F)c3n2N(CC3O)C1C` (single isomer, unassigned) [Compound 69], for which the IC50 turned out to be 1.9 nM.

In the case of `CC1N(C)C(=O)c2c(O)c(=O)c(C(=O)NCc3c(F)ccc(F)c3F)c3n2N1CC3O` (stereo not shown) [Compound 23], the IC50 was 2.3 nM.

As to `CCN1C(=O)c2c(O)c(=O)c(C(=O)NCc3ccc(F)cc3)c3n2N(CC3O)C1C` (stereo not shown) [Compound 87], the IC50 is 4.2 nM.

Turning to `CCN1CN2CC(O)c3c(C(=O)NCc4c(F)cc(F)cc4F)c(=O)c(O)c(n32)C1=O` (stereo not shown) [Compound 55], the IC50 turned out to be 1.6 nM.

Take `CN1C(=O)c2c(O)c(=O)c(C(=O)NCc3c(F)ccc(Cl)c3F)c3n2N(CC3O)C12CCOC2` (stereo not shown) [Compound 117]: the IC50 was found to be 1.8 nM.

As to `CN1CN2CC(O)c3c(C(=O)NCc4c(F)ccc(Cl)c4F)c(=O)c(O)c(n32)C1=O` (stereo not shown) [Compound 7], the IC50 came out at 1.6 nM.

With `CC1N(C)C(=O)c2c(O)c(=O)c(C(=O)NCc3c(F)cc(F)cc3F)c3n2N1CC3O` (single isomer, unassigned) [Compound 17], the IC50 amounted to 1.5 nM.

Turning to `CCC1N(C)C(=O)c2c(O)c(=O)c(C(=O)NCc3c(F)cc(F)cc3F)c3n2N1CC3O` (single isomer, unassigned) [Compound 33], the IC50 was found to be 1.4 nM.

Regarding `COCCN1CN2CC(O)c3c(C(=O)NCc4c(F)cc(F)cc4F)c(=O)c(O)c(n32)C1=O` (stereo not shown) [Compound 45], the IC50 was 2.5 nM.

As to `CN1C(=O)c2c(O)c(=O)c(C(=O)NCc3ccc(F)cc3F)c3n2N(CC3O)C12CCOC2` (single isomer, unassigned) [Compound 111], the IC50 is 2.1 nM.

On to `CCN1C(=O)c2c(O)c(=O)c(C(=O)NCc3c(F)ccc(F)c3F)c3n2N(CC3O)C1C` (single isomer, unassigned) [Compound 81], for which the IC50 is 2.8 nM.

Consider `CN1CN2CC(O)c3c(C(=O)NCc4ccc(F)cc4F)c(=O)c(O)c(n32)C1=O` (stereo not shown) [Compound 3], for which the IC50 turned out to be 3.2 nM.

Values taken from patent US11884683B2, “Tricyclic heterocycle compounds useful as HIV integrase inhibitors” (Merck Sharp & Dohme LLC, priority 2018, dated 2024).
